Patent publication US11046684B2, “Compound for selectively inhibiting kinase and use thereof” (SHANGHAI ZHEYE BIOTECHNOLOGY LIMITED-LIABILITY COMPANY, priority 2017, dated 2021)

What was measured:
[1] = target: T1, FGFR4 kinase recombinant protein (Homo sapiens, UniProt P22455); assay: Inhibition of FGFR kinase activity, ADP-Glo method; type: biochemical; details: 30 min preincubation
T1 construct: purchased Promega
Protocol: (§1) The inhibitory activities of the test substances on FGFR kinase were determined by the ADP-Glo method. The human FGFR1, FGFR2 and FGFR4 kinase recombinant proteins and kinase activity assay kit ADP-Glo™ were purchased from Promega, and the FGFR3 kinase recombinant protein was purchased from BPS Bioscience. The test substance, which was diluted gradiently from 1000 nM, was incubated with the FGFR1, FGFR2, FGFR3 or FGFR4 kinase recombinant protein for 30 minutes, reacted with the substrate in the presence of ATP, and ADP-Glo™ detected the generated ADP and further produced chemiluminescence signals. Microplate reader (Perkin Elmer, Envision) were used to determine the reading for each well, and the origin 7.5 was used to calculate and analyze the IC50, i.e. the concentration at which 50% inhibition occurred.
(§2) The inhibition of the compounds of the present invention on FGFR1-4 kinase activity was measured by the above test, and the measured IC50 (nM) values are shown in Table 1.

[2] = target: T2, FGFR2 kinase recombinant protein (Homo sapiens, UniProt P21802); assay: Inhibition of FGFR kinase activity, ADP-Glo method; type: biochemical; details: 30 min preincubation
T2 construct: purchased Promega
T2 sequence (P21802 22-821): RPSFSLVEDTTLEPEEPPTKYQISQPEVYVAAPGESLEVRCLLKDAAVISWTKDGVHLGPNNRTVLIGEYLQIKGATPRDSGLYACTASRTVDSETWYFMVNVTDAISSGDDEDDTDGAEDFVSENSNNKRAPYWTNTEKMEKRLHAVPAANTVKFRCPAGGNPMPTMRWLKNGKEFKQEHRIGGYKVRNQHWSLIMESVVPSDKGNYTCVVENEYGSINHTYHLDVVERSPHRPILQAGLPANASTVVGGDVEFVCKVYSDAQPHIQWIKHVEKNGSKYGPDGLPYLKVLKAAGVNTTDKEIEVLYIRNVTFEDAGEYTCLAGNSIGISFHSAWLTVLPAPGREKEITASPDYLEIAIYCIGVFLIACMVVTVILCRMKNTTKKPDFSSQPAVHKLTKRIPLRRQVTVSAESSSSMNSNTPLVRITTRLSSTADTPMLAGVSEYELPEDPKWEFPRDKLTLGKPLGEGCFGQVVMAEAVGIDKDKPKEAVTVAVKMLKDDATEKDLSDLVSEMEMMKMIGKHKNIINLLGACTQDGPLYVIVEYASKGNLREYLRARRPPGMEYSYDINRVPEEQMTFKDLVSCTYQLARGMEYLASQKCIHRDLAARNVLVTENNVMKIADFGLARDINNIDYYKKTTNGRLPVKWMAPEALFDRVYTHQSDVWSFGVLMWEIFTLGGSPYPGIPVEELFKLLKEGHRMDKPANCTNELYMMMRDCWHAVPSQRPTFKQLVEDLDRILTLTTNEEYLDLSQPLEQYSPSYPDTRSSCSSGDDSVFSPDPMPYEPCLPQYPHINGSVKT
Protocol: as §1, §2

[3] = target: T3, FGFR3 kinase recombinant protein (Homo sapiens, UniProt P22607); assay: Inhibition of FGFR kinase activity, ADP-Glo method; type: biochemical; details: 30 min preincubation
T3 construct: purchased BPS Bioscience
T3 sequence (P22607 23-806): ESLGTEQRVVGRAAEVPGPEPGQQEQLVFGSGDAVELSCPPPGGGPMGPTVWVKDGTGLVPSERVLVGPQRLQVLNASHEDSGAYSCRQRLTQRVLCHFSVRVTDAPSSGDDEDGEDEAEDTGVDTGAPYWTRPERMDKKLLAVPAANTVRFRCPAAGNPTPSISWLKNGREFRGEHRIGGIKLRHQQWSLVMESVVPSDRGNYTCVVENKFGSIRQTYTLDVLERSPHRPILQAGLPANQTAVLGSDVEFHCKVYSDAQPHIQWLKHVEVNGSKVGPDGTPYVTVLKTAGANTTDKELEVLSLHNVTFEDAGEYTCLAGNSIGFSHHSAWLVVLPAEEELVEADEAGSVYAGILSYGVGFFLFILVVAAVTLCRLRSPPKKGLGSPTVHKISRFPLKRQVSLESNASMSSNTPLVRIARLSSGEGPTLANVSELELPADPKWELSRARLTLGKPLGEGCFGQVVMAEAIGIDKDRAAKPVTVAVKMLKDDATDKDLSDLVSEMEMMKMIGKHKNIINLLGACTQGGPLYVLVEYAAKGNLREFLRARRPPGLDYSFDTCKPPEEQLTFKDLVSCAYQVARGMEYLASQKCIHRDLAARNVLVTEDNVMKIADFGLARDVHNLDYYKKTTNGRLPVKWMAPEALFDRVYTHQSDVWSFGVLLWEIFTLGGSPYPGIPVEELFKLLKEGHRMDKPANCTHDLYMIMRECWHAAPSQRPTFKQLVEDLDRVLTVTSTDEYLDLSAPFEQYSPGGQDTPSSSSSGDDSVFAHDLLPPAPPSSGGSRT
Protocol: as §1, §2

[4] = target: T4, FGFR1 kinase recombinant protein (Homo sapiens, UniProt P11362); assay: Inhibition of FGFR kinase activity, ADP-Glo method; type: biochemical; details: 30 min preincubation
T4 construct: purchased Promega
T4 sequence (P11362 22-822): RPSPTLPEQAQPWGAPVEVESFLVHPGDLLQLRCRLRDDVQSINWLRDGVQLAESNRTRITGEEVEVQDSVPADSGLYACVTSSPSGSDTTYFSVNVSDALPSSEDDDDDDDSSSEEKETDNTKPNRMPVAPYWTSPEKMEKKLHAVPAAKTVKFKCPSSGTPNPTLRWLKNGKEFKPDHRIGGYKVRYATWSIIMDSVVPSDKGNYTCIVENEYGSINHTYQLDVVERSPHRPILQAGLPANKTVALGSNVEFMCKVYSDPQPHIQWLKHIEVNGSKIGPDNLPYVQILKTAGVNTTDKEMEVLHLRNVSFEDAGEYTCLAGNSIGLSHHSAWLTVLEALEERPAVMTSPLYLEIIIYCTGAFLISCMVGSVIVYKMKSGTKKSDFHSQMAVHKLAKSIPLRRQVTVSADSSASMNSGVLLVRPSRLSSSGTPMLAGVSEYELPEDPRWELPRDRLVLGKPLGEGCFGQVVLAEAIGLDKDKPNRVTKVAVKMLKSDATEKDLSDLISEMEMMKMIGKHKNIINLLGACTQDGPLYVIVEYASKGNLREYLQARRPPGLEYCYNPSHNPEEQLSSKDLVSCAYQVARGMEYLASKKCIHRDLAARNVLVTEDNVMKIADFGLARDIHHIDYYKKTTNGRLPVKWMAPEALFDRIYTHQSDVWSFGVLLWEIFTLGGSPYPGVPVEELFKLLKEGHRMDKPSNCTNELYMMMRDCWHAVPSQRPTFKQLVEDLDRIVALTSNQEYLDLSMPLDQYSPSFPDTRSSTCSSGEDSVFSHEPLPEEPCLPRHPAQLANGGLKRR
Protocol: as §1, §2

[5] = tested on: HCC cells with FGF19 gene amplification; assay: HCC cell line panel proliferation, selectivity conclusion; type: cell-based; details: conclusion from Table 2
Protocol: (§3) The inhibitory activities of the compounds of the examples on cell proliferation in vitro were tested using five hepatocellular carcinoma cell lines: Hep3B, Huh7, JHH-7, SK-hep-1, SNU423. The above cells were all from ATCC (American Type Culture Collection). Among them, Hep3B, Huh-7, JHH-7 these three cell lines all have FGF19 gene amplification (increased copy number) and increased mRNA expression level, as well as high level expression of FGFR4 and KLB gene mRNA; SK-hep-1, SNU423 cell lines have no FGF19 gene amplification and the expression level of FGF19 mRNA was very low (Barretina J, Caponigro G, et al. Nature 2012; 483: 603-7.).
(§4) Cell proliferation was measured using the SRB (Sulforhodamine-B, sulforhodamine B) method. The cells were cultured to a cell fusion of more than 90% and then trypsinized. After counting, the cells were inoculated into 96-well plates at 6000 cells/well. After adherent culture overnight, the test compound was dissolved in DMSO and diluted with complete medium, added to the culture wells to form a 5-fold dilution of 10 concentration gradients from 10 μM. The cells were incubated for further 72 hours, 50 μl of 50% trichloroacetic acid was added to each well and fixed at 4° C. for 1 hour. The trichloroacetic acid in each well was discarded and washed 5 times with 300 μl of double distilled water. After drying at room temperature, 50 μl of 0.4% SRB dye solution (1% acetic acid/0.4% SRB) was added to each well to react for 15 min. The dye solution of each well was discarded, washed 6-7 times with 1% acetic acid, and dried at room temperature. 200 μl of 10 mM Tris solution (pH=10.5) was added to each well and shaken until the solution was clear. The absorbance at 490 nm of each well was measured by a microplate reader. The reading of the wells where the concentration of the test compound was 0 was used as a control, and fitted with Origin 7.5 software, the IC50 value (nM) of the test substance for inhibiting cell proliferation was calculated.

[6] = tested on: Hep3B transplantation tumor; assay: HCC cell subcutaneous transplantation tumor growth inhibition test in nude mice; type: in vivo; details: for growth inhibition of the transplantation tumor: 50 mg/kg, intragastric, BID 21 days, Hep3B nude mice; for adverse reactions (water and food take, activity, body weight) during administration: all dose groups 50, 100, 150 mg/kg BID, 21 days, tumor-bearing nude mice
Protocol: The Hep3B cells in the logarithmic growth phase were cultured and collected, and subcutaneously inoculated into the right back of nude mice (female Balb/c Nude mice, from Beijing Vitalriver) at 1×10^7 cells/mouse. When the tumor grew to 50-300 mm^3, tumor-bearing nude mice were randomly grouped, 6 animals per group. Subsequently, each group of animals was administered at the following dose, and the day of the first dose was defined as the first day of the test.
Blank solvent (ultra-pure water) control group, compound 1, compound 2 were respectively set to 50 mg/kg, 100 mg/kg, 150 mg/kg three dose groups, intragastric administration, twice a day (BID), for 21 consecutive days. The state of the animals was observed daily during the administration; the body weight was measured once a week before the first administration; and the body weight was measured twice a week after the start of the administration. The size of the transplantation tumor was measured every 3 days after the start of administration. Tumor volume (TV)=½×a×b^2, wherein, a and b represent the length and width of the tumor, respectively. The relative tumor volume (RTV) was calculated based on the measured results, RTV=Vt/V0×100, wherein V0 is the measured tumor volume on the day of the cage (i.e., day 0), and Vt is the tumor volume at each measurement.
After establishing the Hep3B nude mice transplantation tumor model according to the method described above, the mice were divided into three groups and intragastrically administered with a blank solvent (ultra-pure water) control, compound 1 (15 mg/kg, BID), sorafenib (prepared according to the method described in the literature CN1721397A and identified) respectively, 30 mg/kg, once a day (QD), for 21 consecutive days. The growth inhibition on the transplantation tumor of the test substances, animal status and body weight were evaluated in the same manner as above. The tumor volume (TV) was measured and the tumor inhibition rate was calculated according to the tumor inhibition rate (TGI)=(1−T/C)×100%. C: average tumor volume of the control group; T: average tumor volume of the administration group.

JHH-7 = assay: HCC cell proliferation inhibition, SRB method; type: cell-based; details: JHH7, 72 hours
Protocol: as §3, §4
(§5) The antitumor cell proliferation activities of the compounds of the present invention were measured by the above test, and the measured IC50 (nM) values are shown in Table 2.

HUH-7 = assay: HCC cell proliferation inhibition, SRB method; type: cell-based; details: Homo sapiens, 72 hours
Protocol: as §3, §4, §5

SNU387 = assay: HCC cell proliferation inhibition, SRB method; type: cell-based; details: Homo sapiens, SNU-387, 72 hours
Protocol: [Worded in the source for another cell line; this cell line is reported under the same test.] as §3, §4, §5

SK-hep-1 = assay: HCC cell proliferation inhibition, SRB method; type: cell-based; details: Homo sapiens, SK-HEP1, 72 hours
Protocol: as §3, §4, §5

Hep3B = assay: HCC cell proliferation inhibition, SRB method; type: cell-based; details: Homo sapiens, 72 hours
Protocol: as §3, §4, §5

T1 sequence (P22455 22-802): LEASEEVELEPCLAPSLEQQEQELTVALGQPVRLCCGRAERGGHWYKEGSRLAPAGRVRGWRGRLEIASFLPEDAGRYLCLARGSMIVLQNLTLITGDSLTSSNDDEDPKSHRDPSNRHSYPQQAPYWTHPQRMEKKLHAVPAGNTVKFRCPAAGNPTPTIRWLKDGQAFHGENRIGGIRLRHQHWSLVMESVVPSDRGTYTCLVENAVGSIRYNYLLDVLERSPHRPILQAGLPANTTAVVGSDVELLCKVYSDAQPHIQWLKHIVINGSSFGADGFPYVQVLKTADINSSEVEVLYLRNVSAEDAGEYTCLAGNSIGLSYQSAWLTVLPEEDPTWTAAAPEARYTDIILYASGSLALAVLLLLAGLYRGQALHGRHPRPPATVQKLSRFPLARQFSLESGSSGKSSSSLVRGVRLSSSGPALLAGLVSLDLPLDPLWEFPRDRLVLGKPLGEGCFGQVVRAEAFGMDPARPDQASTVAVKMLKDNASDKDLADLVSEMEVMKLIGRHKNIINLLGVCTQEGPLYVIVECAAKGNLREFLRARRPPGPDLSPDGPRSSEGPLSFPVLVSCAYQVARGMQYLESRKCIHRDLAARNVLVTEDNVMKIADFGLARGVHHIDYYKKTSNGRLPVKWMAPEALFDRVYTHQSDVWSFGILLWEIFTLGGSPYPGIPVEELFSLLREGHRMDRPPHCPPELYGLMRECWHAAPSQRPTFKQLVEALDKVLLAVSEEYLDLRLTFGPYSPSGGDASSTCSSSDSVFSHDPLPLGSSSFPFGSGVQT

SMILES	IC50 [1] [nM]	IC50 [2] [nM]	IC50 [3] [nM]	IC50 [4] [nM]	selective inhibitory effect on HCC cells with FGF19 gene amplification [5]	growth inhibition of the transplantation tumor [6]	adverse reactions (water and food take, activity, body weight) during administration [6]	efficacy compared with sorafenib 30 mg/kg QD ([6]; compound 1 15 mg/kg BID, Hep3B nude mouse transplantation tumor model)	IC50 (JHH-7) [nM]	IC50 (HUH-7) [nM]	IC50 (SNU387) [nM]	IC50 (SK-hep-1) [nM]	IC50 (Hep3B) [nM]
C#CCNc1cc(NC(=O)N2CCCc3cc(CN4CCN(C)CC4=O)c(C=O)nc32)ncc1C#N [Compound 1]	0.41	> 1000	> 1000	> 1000	significant selective inhibitory effect	significant	no adverse reactions occurred	superior to that of sorafenib	3	4	> 1000	> 1000	0.35
C#CCCNc1cc(NC(=O)N2CCCc3cc(CN4CCOCC4=O)c(C=O)nc32)ncc1C#N [Compound 3]	0.62	> 1000	> 1000	> 1000	significant selective inhibitory effect	–	–	–	–	5.7	> 1000	–	0.62
C#CCCCNc1cc(NC(=O)N2CCCc3cc(CN4CCN(C)CC4=O)c(C=O)nc32)ncc1C#N [Compound 6]	0.59	> 1000	> 1000	> 1000	significant selective inhibitory effect	–	–	–	–	4.9	> 1000	–	0.53
[2H]C([2H])([2H])N1CCN(Cc2cc3c(nc2C=O)N(C(=O)Nc2cc(NCCC#C)c(C#N)cn2)CCC3)C(=O)C1 [Compound 4]	0.37	> 1000	> 1000	> 1000	significant selective inhibitory effect	–	–	–	–	2.8	> 1000	–	0.36
C#CCCNc1cc(NC(=O)N2CCCc3cc(CN4CCN(C)CC4=O)c(C=O)nc32)ncc1C#N [Compound 2]	0.33	> 1000	> 1000	> 1000	significant selective inhibitory effect	significant	no adverse reactions occurred	–	2.6	2.9	> 1000	> 1000	0.4
